Laboratory results taken from patent US20250257134A1, “THERAPEUTIC AND DIAGNOSTIC METHODS FOR BLADDER CANCER” (Genentech, Inc., priority 2022, published 2025).

Columns and labels:
[1] = test system: patients with untreated locally advanced or metastatic urothelial carcinoma; assay: Phase III IMvigor130 study: overall survival, atezolizumab monotherapy (Arm B) vs placebo + platinum-based chemotherapy (Arm C); type: in vivo, human; details: 1L mUC, May 31, 2019 cutoff
Text: This Example describes the IMvigor130 study, which is a Phase III, multicenter, randomized, placebo-controlled, partially blind study designed to evaluate the efficacy of atezolizumab given as monotherapy or in combination with platinum-based chemotherapy versus placebo in combination with platinum-based chemotherapy in patients with locally advanced or metastatic urothelial carcinoma who have not received prior systemic therapy.
The primary efficacy objective for this study is to evaluate the efficacy of atezolizumab plus platinum-based chemotherapy compared with placebo plus platinum-based chemotherapy on the basis of the following endpoints: • Co-primary endpoints of progression-free survival (PFS) and overall survival (OS) • PFS is defined as the time from randomization to the first documented disease progression as determined by the investigator with use of RECIST v1.1, or death due to any cause, whichever occurs first. • OS is defined as the time from randomization to death due to any cause. […]
Randomization was stratified by the following factors: • PD-L1 status (IC0 (<1%) vs. IC1 (≥1% and <5%) vs. IC2/3 (≥5%)). • Bajorin model risk factor score/liver metastasis (0 vs. 1 vs. 2 or patients with liver metastasis). • Investigator-determined chemotherapy (gemcitabine and carboplatin vs. gemcitabine and cisplatin). […]

[2] = test system: patients with metastatic urothelial carcinoma (mUC); assay: Post hoc analysis of IMvigor130 biomarker-evaluable population: PD-L1 IHC assays (SP142, 22C3) and OS; type: in vivo, human
Text: Clinically relevant biomarkers are needed to predict outcomes with immunotherapy in metastatic urothelial carcinoma (mUC). Different PD-L1 assays use various methods (e.g., scoring tumor and/or immune cells) to evaluate anti-PD-L1/PD-1 outcomes. […] Thus, it was hypothesized that the SP142 and 22C3 assays may be differentially associated with OS in IMvigor130 patients, which may be related to PD-L1 localization on specific immune cells such as dendritic cells (DCs). This Example describes a post hoc analysis that studied associations between two PD-L1 IHC assays (i.e., VENTANA SP142 and Dako 22C3) and OS in the biomarker-evaluable population of the IMvigor130 study.
The biomarker-evaluable population in this analysis consisted of patients with archival tumors in Arms B and C (Jun. 14, 2020 cutoff) (Galsky et al. Cancer Res. 81 (13_Supplement): CT042, 2021). Formalin-fixed paraffin-embedded (FFPE) tumor specimens from eligible IMvigor130 study patients were prospectively tested for PD-L1 IHC expression by a central laboratory prior to randomization (see, Example 1 for additional information). The IHC scores had three categories (IC0, IC1, IC2/3). The study enrolled all eligible patients whose tissue is evaluable for expression testing, regardless of PD-L1 expression status.
PD-L1 expression was evaluated by IHC (CellCarta) using the SP142 (Ventana) and 22C3 (Dako) assays in 322 patients treated with atezolizumab monotherapy (Arm B) and 305 patients treated with placebo+platinum-based chemotherapy (Arm C). Samples were also stained for IC subtypes. Assay cutoffs for the SP142 assay were IC ≥5% (IC2/3) and <5% (IC0/1). For the 22C3 assay, cutoffs were CPS ≥10 and <10.
A subset of tumor samples were also stained by IHC for the dendritic cell marker DC-LAMP (Clone 1010E1.01, Novus Biologicals). In silico deconvolution by xCell (Aran et al. Genome Biol. 18 (1): 220, 2017) was performed. Statistical analysis was performed to compare OS between subgroups using the stratified log-rank test.

[3] = patients receiving atezolizumab monotherapy, biomarker-evaluable population, Jun. 14, 2020 cutoff
[4] = untreated locally advanced or metastatic UC

atezolizumab: Fc-engineered, humanized, non-glycosylated IgG1 kappa immunoglobulin that binds PD-L1; heavy chain SEQ ID NO: 1, light chain SEQ ID NO: 2
overall survival (OS) HR, atezolizumab monotherapy (Arm B) versus placebo+platinum-based chemotherapy (Arm C) ([1]; PD-L1 IC2/3 by SP142 IHC assay): 0.68 | overall survival (OS) HR, atezolizumab monotherapy (Arm B) versus placebo+platinum-based chemotherapy (Arm C) ([1]; PD-L1 IC2/3 cisplatin ineligible): 0.53 | OS HR by 22C3 CPS scoring (CPS ≥10 versus CPS <10) [2, 3]: 0.83 (0.63, 1.10) | OS HR by SP142 scoring (IC2/3 versus IC0/1) [2, 3]: 0.55 (0.39, 0.77) | OS in SP142 IC2/3 versus IC0/1 tumours ([2]; patients with mUC): longer OS | OS by combined tumor status SP142 IC0/1 + 22C3 CPS ≥10 [2, 4]: shorter OS | OS by combined tumor status SP142 IC2/3 + 22C3 CPS ≥10 (double positive) [2, 4]: longer OS
